Assay results from US10011568B2, “Cyclohexyl pyridine derivative” (priority 2014, dated 2018).

Columns and labels:
human NK1 receptor [1] = molecular target: T1, human NK1 receptor (Homo sapiens (Human), UniProt P25103); experiment: Inhibitory effect on human NK1 receptor (substance P-induced increase in intracellular calcium concentration); type: cell-based; conditions: substance P 1 μM, compound 0.1 μM; read-out: SPRR (%), Substance P-Response Remaining (intracellular calcium concentration)
Experimental: Inhibitory Effect on Human NK1 Receptor
(1) Preparation of Human NK1 Receptor-Expressing Cells
Human NK1 receptor-expressing cells were prepared by the same methods as those described in 2-3 of Test Example 1.
(2) Study on Inhibitory Effect on Increase in Intracellular Calcium Concentration
The human NK1 receptor-expressing cells were washed with 300 μL/well of a washing solution (20 mM HEPES/Hank's Balanced Salt Solution (HBSS) pH 7.3). A fluorescent calcium indicator (Fluo-4 Direct Calcium Assay Kit, Life Technologies, containing 0.42 mM probenecid and 0.1% bovine serum albumin, prepared according to the protocol of the product) was added to the wells at 150 μL/well, and the plate was incubated at 37° C. for 30 minutes in an incubator. Then. DMSO solutions of a test compound, which were prepared at an 80-time higher concentration using 100% dimethyl sulfoxide (DMSO), were added to the wells at 2.5 μL/well (final concentrations of 0.1, 1 and 10 μM), and the solutions were mixed. Then, the plate was further incubated at […] for 30 minutes in an incubator. After 30 minutes, the intracellular calcium concentrations were measured immediately.
The intracellular calcium concentrations were each measured as a fluorescent signal using FDSS (registered trademark) 7000 (Hamamatsu Photonics). A substance P (Peptide Institute. Inc.) solution which was prepared at 0.4 μM or 4 μM using an assay buffer (20 mM HEPES/Hank's Balanced Salt Solution (HBSS) pH 7.3, containing 0.1% bovine serum albumin) was added automatically to each well at 50 μL/well (final concentration of 0.1 or 1 μM) 10 seconds after starting reading, and the fluorescent signal was measured up to 120 seconds.
The intracellular calcium concentration (%) of the cells to which a test compound was added was calculated by the equation below, where the fluorescent signal of the group to which the vehicle (DMSO) was added was regarded as 100%, and the fluorescent signal before the addition of substance P was regarded as 0%. Intracellular calcium concentration (%)—(Fluorescent signal of test compound addition group)/(Fluorescent signal of vehicle addition group)×100
The intracellular calcium concentration (%) calculated was regarded as the remaining agonist activity of substance P (Substance P-Response Remaining: SPRR). In the table, Ex. No. means the Example number. SPRR (%) is the value obtained when the concentration of substance P was 1 μM and the concentration of the compound was 0.1 μM.

human CYP3A4 = human CYP3A4 (Homo sapiens (Human), UniProt P08684); experiment: Inhibitory effect on CYP3A4; type: in vitro ADME; conditions: 30-minute pre-incubation, Luciferin-IPA substrate; read-out: IC50 (μM), CYP3A4 inhibition
Experimental: Inhibitory Effect on CYP3A4
Enzyme reaction was performed by incubating in a potassium phosphate buffer solution (pH 7.4) containing 1 nM to 20 μM test compound, 3.2 mM magnesium chloride, 0.2 pmol human CYP3A4 (BD Biosciences), 0.5 mM reduced nicotinamide adenine dinucleotide phosphate (NADPH) and 3 μM Luciferin-IPA (Promega) at 37° C. for 10 minutes. The volume of the reaction solution was 50 μL/well. The 30-minute pre-incubation group was incubated at 37° C. for 30 minutes before adding tire substrate, the Luciferin-IPA solution (12.5 μL/well). At the end of the enzyme reaction, 50 μL/well of a Luciferin detection reagent (Promega) was added to the wells, and the plate was left at room temperature for 20 minutes. Then, the emission intensities were measured with Infinite M1000 (TECAN). The enzyme activities (%) relative to the value of the group to which the test compound was not added were calculated.

[2] = Measurement of drug concentrations in the brain after foot-tapping; type: in vivo; conditions: male gerbil, 0.1 mg/kg iv, after foot-tapping was finished
Experimental: (§1) A male gerbil (Japan SLC) was anesthetized with isoflurane, and 0.1 mg/kg of a test compound was administered from the jugular vein. After four hours. GR73632 (5 pmol/5 μl saline), which is an NK1 receptor agonist, was administered into the cerebral ventricle at the part 1 mm lateral to and 4.5 mm below the bregma in the head, under anesthesia with isoflurane. After the administration, the gerbil was moved to an observation cage, and the foot-tapping period during 30 minutes after the recovery of the righting reflex was measured. The foot-tapping inhibition rate (%) of each test compound was calculated by the following equation. Foot-tapping inhibition rate (%)−{1−(Fool-tapping period when test compound was administered)/(Foot-tapping period when solvent was administered)}×100 (2) Measurement of Drug Concentrations
After foot-tapping was finished, laparotomy was performed immediately under anesthesia with ether, and a blood sample was taken from the abdominal vena cava. At the same lime, the brain was extracted. Through a quantitative analysis using liquid chromatography-mass spectrometry (LC/MS), the concentrations of the test compound in the plasma and the brain were measured.
(§2) In the table, Ex. No. means the Example number. Inhibition (%) is the loot-tapping inhibition rate, and Cone. (nM) is the drug concentration in the brain.

human NK1 receptor [3] = molecular target: T1, human NK1 receptor; experiment: Affinity for human NK1 receptor (125I-substance P receptor binding test, membrane fraction); conditions: membrane fraction of human NK1 receptor-expressing 293T cells; read-out: IC50 (nM), concentration required for 50% inhibition of 125I-substance P binding
Experimental: Affinity for Human NK1 Receptor
(3) Measurement of Binding Affinity to Human NK1 Receptor
(3-1) Preparation of Membrane Fraction from Human NK1 Receptor-Expressing Cells
Human NK1 receptor-expressing cells were prepared in a 175 cm^2 culture flask (Nippon Becton Dickinson). The formation of a complex of the human NK1 receptor expression plasmid and Lipofectamine 2000 was performed by calculating the culture area ratio and increasing the scale of the method described in the above 2-4 by the ratio. The human NK1 receptor-expressing cells were collected in a buffer solution for the membrane fraction preparation (50 mM Tris (Wako Pure Chemical), 120 mM sodium chloride (Wako Pure Chemical Industries), 5 mM potassium chloride (Wako Pure Chemical Industries), 1 mM ethylenediaminetetraacetic acid (Sigma), 0.002 mg/mL chymostatin (Peptide Institute), 0.04 mg/bacitracin (Wako Pure Chemical Industries), 0.005 mg/mL phosphoramidon (Peptide Institute) and 0.5 mM phenylmethylsulfonyl fluoride (Wako Pure Chemical Industries), pH7.4) and centrifuged at 1,880 g for 10 minutes, and the cell sediment was suspended in the buffer solution for the membrane fraction preparation. After freezing and thawing the cells once, the cells were homogenized using a Dounce-type homogenizer (cooled on ice, 1000 rpm, 20 times) The homogenized cell suspension was centrifuged at 20,000 rpm for 10 minutes, and the supernatant was removed to obtain cell sediment. The cell sediment was suspended again in the buffer solution for the membrane fraction preparation and homogenized using a Dounce-type homogenizer (cooled on ice, 1000 rpm, 30 times). The cell suspension was centrifuged at 20,000 rpm for 10 minutes, and the supernatant was removed to obtain cell sediment. The same homogenization and centrifugation were repeated again, and final cell sediment was obtained. The final cell sediment was suspended in a buffer solution for the receptor binding test (50 mM Tris (Wako Pure Chemical Industries). 3 mM manganese chloride (Wako Pure Chemical Industries), 0.002 mg/mL chymostatin (Peptide Institute), 0.04 mg/bacitracin (Wako Pure Chemical Industries) and 0.02% bovine serum albumin (Sigma), pH 7.4), and the protein concentration was measured using BCA Protein Assay Kit (Pierce).
(3-2) Receptor Binding Test
The buffer solution for the receptor binding test was dispensed to the wells of a 96-well assay plate (Greiner) at 22.5 μL/well. DMSO solutions of a test compound, which were prepared at an 80-time higher concentration using 100% dimethyl sulfoxide (DMSO), were added to the wells at 2.5 μL/well (final concentrations of 1 nM to 100 nM), and the solutions were mixed. As a radiolabeled ligand, ^125I-substance P (Substance P, [^125I]Tyr^8-, Perkin Elmer) was used. ^125I-substance P was diluted with the buffer solution for the receptor binding test to a concentration resulting in 125 pmol/25 μL/well and added to the 96-well assay plate, and the solutions were mixed. The membrane fraction prepared from the human NK1 receptor-expressing cells was diluted with the buffer solution for the receptor binding test to a concentration resulting in 8 to 10 μg/well, suspended until the suspension became in such a homogenous state that the suspension could flow through a 27G injection needle smoothly and then added to the 96-well assay plate at 150 μL/well. Then, the plate was incubated at room temperature for 60 minutes while shaking the plate. The reaction solutions were suction-filtered through a multiscreen 96-well filter plate (Millipore) which had been pre-treated with 0.3% polyethyleneimine, and the reaction was terminated by washing with a washing solution (50 mM Tris and 0.02% bovine serum albumin, pH 7.4) four times. The bottom of the microplate was dried at 60° C., and then 100 μL/well of MicroScint 20 (PerkinElmer) was dispensed to the wells. The top of the plate was sealed with TopSeal A (PerkinElmer), and the plate was shaken for 5 to 10 minutes. […]

NK1 receptor = NK1 receptor (Meriones unguiculatus (Mongolian jird) (Gerbillus unguiculatus), UniProt Q5DUB1); experiment: Effect on foot-tapping induced by NK1 receptor agonist GR73632; type: in vivo; conditions: male gerbil, 0.1 mg/kg iv, GR73632 after four hours
Experimental: (1) Effect on Foot-Tapping
The test compound solution was prepared by dissolving the test compound in a vehicle (a mixture of 50% N,N-dimethylacetamide (Wako Pure Chemical Industries), 30% propylene glycol (Wako Pure Chemical Industries). 4% 2-hydroxypropyl-β-cyclodextrin (Wako Pure Chemical Industries) and 16% distilled water).
as §1, §2

T1 sequence (P25103 whole entry): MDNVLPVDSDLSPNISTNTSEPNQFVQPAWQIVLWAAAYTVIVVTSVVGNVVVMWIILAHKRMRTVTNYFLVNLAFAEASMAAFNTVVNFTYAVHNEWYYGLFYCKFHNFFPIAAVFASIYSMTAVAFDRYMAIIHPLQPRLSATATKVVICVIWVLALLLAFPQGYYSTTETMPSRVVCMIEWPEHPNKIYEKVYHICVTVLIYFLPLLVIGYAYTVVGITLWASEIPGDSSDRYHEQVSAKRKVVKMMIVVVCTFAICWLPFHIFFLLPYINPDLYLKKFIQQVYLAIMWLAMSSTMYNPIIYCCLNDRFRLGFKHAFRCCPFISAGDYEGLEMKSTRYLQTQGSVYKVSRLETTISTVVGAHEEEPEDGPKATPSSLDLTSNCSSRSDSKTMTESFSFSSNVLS
human CYP3A4, sequence (P08684 whole entry): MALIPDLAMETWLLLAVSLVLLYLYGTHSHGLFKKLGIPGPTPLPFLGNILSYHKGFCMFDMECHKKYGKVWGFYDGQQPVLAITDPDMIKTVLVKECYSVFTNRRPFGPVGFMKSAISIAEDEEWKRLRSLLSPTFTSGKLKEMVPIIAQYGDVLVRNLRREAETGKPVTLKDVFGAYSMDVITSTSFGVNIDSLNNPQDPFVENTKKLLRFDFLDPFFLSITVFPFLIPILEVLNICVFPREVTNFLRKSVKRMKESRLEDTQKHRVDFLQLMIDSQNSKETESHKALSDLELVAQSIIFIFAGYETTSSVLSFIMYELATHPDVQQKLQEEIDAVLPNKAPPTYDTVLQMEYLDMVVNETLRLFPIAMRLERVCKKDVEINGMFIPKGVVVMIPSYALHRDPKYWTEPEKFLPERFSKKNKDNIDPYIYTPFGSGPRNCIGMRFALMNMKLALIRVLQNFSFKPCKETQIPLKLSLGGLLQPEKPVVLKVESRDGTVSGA
NK1 receptor, sequence (Q5DUB1 whole entry): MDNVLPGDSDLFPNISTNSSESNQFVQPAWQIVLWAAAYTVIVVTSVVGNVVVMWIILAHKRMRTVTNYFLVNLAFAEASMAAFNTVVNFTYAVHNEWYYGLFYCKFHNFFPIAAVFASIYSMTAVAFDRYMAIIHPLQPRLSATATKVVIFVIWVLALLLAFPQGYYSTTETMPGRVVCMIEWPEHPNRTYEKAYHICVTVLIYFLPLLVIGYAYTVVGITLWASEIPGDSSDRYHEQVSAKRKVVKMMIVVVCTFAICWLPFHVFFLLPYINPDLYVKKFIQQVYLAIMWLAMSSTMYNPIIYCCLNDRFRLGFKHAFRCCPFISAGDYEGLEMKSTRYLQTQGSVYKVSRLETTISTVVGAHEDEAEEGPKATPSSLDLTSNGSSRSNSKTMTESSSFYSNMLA

SMILES	remaining activity at 0.1 µM (human NK1 receptor [1])	IC50 (human CYP3A4)	Conc. (nM), drug concentration in the brain [2]	IC50 (human NK1 receptor [3])	Inhibition (%), foot-tapping inhibition rate (NK1 receptor)
Cc1cc(F)ccc1-c1cc(C2CCC(CCC(=O)O)CC2)ncc1N(C)C(=O)C(C)(C)c1cc(C(F)(F)F)cc(C(F)(F)F)c1 (stereo not shown) [Example 2, 3-{4-[5-{[2-(3,5-Bistrifluoromethylphenyl)-2-methylpropionyl]methylamino}-4-(4-fluoro-2-methylphenyl)pyridin-2-yl]cyclohexyl}propionic Acid]	7.5%	6.8 µM	19 nM		
Cc1cc(F)ccc1-c1cc(C2CCC(CC(=O)O)CC2)ncc1N(C)C(=O)C(C)(CO)c1cc(C(F)(F)F)cc(C(F)(F)F)c1 (stereo not shown) [Example 5, {4-[5-{[2-(3,5-Bistrifluoromethylphenyl)-3-hydroxy-2-methylpropionyl]methylamino}-4-(4-fluoro-2-methylphenyl)pyridin-2-yl]cyclohexyl}acetic Acid]	26%	13 µM		0.98 nM	
Cc1cc(F)ccc1-c1cc(C2CCC(O)(CC(=O)O)CC2)ncc1N(C)C(=O)C(C)(C)c1cc(C(F)(F)F)cc(C(F)(F)F)c1 (stereo not shown) [Example 6, {4-[5-{[2-(3,5-Bistrifluoromethylphenyl)-2-methylpropionyl]methylamino}-4-(4-fluoro-2-methylphenyl)pyridin-2-yl]-1-hydroxycyclohexyl}acetic Acid]	21%	6.1 µM		1 nM	
Cc1cc(F)ccc1-c1cc(C2CCC(C)(CC(=O)O)CC2)ncc1N(C)C(=O)C(C)(C)c1cc(C(F)(F)F)cc(C(F)(F)F)c1 (stereo not shown) [Example 15, {4-[5-{[2-(3,5-Bistrifluoromethylphenyl)-2-methylpropionyl]methylamino}-4-(4-fluoro-2-methylphenyl)pyridin-2-yl]-1-methylcycloheyl}acetic Acid]	3.7%		39 nM		100%
Cc1cc(F)ccc1-c1cc(C2CCC(CC(=O)O)CC2)nc(CO)c1N(C)C(=O)C(C)(C)c1cc(C(F)(F)F)cc(C(F)(F)F)c1 (stereo not shown) [Example 19, {4-[5-{[2-(3,5-Bistrifluoromethylphenyl)-2-methylpropionyl]methylamino}-4-(4-fluoro-2-methylphenyl)-6-hydroxymethylpyridin-2-yl]cyclohexyl}acetic Acid]	26%		24 nM	4.96 nM	95%

The next lines start with the values.

remaining activity at 0.1 µM (human NK1 receptor [1])	IC50 (human CYP3A4)	Conc. (nM), drug concentration in the brain [2]	IC50 (human NK1 receptor [3])	Inhibition (%), foot-tapping inhibition rate (NK1 receptor)	SMILES
53%	2.2 µM		4.46 nM		Cc1cc(F)ccc1-c1cc([C@H]2CC[C@@H](C(C)(C)C(=O)O)CC2)ncc1N(C)C(=O)C(C)(C)c1cc(C(F)(F)F)cc(C(F)(F)F)c1 [Example 12, cis-2-{4-[5-{[2-(3,5-Bistrifluoromethylphenyl)-2-methylpropionyl]methylamino}-4-(4-fluoro-2-methylphenyl)pyridin-2-yl]cyclohexyl}-2-methylpropionic Acid]
	3.3 µM	57 nM			Cc1cc(F)ccc1-c1cc(C2CCC(CC(=O)O)CC2)nc(Cl)c1N(C)C(=O)C(C)(C)c1cc(C(F)(F)F)cc(C(F)(F)F)c1 (stereo not shown) [Example 17, {4-[5-{[2-(3,5-Bistrifluoromethylphenyl)-2-methylpropionyl]methylamino}-6-chloro-4-(4-fluoro-2-methylphenyl)pyridin-2-yl]cyclohexyl}acetic Acid]
	4.9 µM	47 nM	6.45 nM	100%	Cc1cc(F)ccc1-c1cc(C2CCC(CC(=O)O)CC2)nc(C)c1N(C)C(=O)C(C)(C)c1cc(C(F)(F)F)cc(C(F)(F)F)c1 (stereo not shown) [Example 18, {4-[5-{[2-(3,5-Bistrifluoromethylphenyl)-2-methylpropionyl]methylamino}-4-(4-fluoro-2-methylphenyl)-6-methylpyridin-2-yl]cyclohexyl}acetic Acid]
